Assay results taken from patent US8435978B2, “Substituted sulfonamide compounds” (Gruenenthal GmbH, priority 2006, dated 2013).
Where a name gives a salt, the structure may show the parent alone.

Tests used:
[1] = biological target: T1, human B1R receptor (Homo sapiens, UniProt P46663); assay: Functional study on the bradykinin receptor 1 (B1R), FLIPR Ca2+ assay, hB1R cells; format: cell-based; details: CHO-K1, test substance 10 μM, agonist Lys-Des-Arg9-bradykinin 0.5 nM, % inhibition compared with the maximum achievable inhibition, read-out: B1R Antagonism, human [10 μM] % Inhibition
T1 construct: host or cells: CHO K1 cells (Chinese hamster ovary), stably transfected
T1 sequence (P46663 1-353): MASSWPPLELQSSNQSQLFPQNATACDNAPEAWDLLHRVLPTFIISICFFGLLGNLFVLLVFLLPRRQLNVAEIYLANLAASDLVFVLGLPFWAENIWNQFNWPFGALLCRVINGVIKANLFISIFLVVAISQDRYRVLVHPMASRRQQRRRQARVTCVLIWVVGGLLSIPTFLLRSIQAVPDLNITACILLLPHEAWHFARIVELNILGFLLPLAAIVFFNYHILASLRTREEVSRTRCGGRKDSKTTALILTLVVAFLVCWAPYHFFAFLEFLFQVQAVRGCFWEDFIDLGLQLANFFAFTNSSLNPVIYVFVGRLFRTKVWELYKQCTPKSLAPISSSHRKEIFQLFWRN
Method in brief: (§1)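 FLIPR Ca2+ assay in recombinant CHO K1 cells (human or rat B1R), Fluo-4 dye; 10 μM compound, 10 min, then EC-level agonist per species (0.5 nM Lys-Des-Arg9-BK human / 100 nM Des-Arg9-BK rat). Output: % inhibition vs maximum.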

[2] = biological target: T2, B1R receptor of the rat (Rattus norvegicus, UniProt P97583); assay: Functional study on the bradykinin receptor 1 (B1R), FLIPR Ca2+ assay, rB1R cells; format: cell-based; details: CHO-K1, test substance 10 μM, agonist Des-Arg9-bradykinin 100 nM, % inhibition compared with the maximum achievable inhibition, read-out: B1R Antagonism, rat [10 μM] % Inhibition
T2 construct: host or cells: CHO K1 cells (Chinese hamster ovary), stably transfected
T2 sequence (P97583 1-337): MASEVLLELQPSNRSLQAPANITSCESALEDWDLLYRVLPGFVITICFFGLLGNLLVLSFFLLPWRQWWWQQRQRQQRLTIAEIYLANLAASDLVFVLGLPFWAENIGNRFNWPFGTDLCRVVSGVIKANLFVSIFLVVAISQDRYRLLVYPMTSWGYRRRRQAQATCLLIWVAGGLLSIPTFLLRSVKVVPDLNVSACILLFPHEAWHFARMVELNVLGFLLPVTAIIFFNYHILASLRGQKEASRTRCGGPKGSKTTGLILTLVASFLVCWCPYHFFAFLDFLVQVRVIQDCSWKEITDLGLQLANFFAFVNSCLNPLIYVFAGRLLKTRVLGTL
Method in brief: as §1

COc1cc(C)c(S(=O)(=O)N2CCCCC2COCC(=O)NCc2ccc(CN3CCOCC3)cc2)c(C)c1 (stereo not drawn) [Example 24, 2-[1-(4-methoxy-2,6-dimethyl-phenylsulfonyl)-piperidin-2-ylmethoxy]-N-(4-morpholin-4-ylmethyl-benzyl)-acetamide]
inhibition at 10 µM [1]: 92.2%
inhibition at 10 µM [2]: 107%

CN1CCC(N2CCN(C(=O)COCC3CCCCN3S(=O)(=O)c3ccc(Br)cc3)CC2)CC1 (stereo not drawn) [Example 123, 2-((1-(4-bromophenylsulfonyl)piperidin-2-yl)methoxy)-1-(4-(1-methylpiperidin-4-yl)piperazin-1-yl)ethanone]
inhibition at 10 µM [1]: 43.9%
inhibition at 10 µM [2]: 79.9%

CCN(Cc1ccncc1)C(=O)COCC1CCCCN1S(=O)(=O)c1c(C)cc(OC)cc1C (stereo not drawn) [Example 510, N-ethyl-2-((1-(4-methoxy-2,6-dimethylphenylsulfonyl)piperidin-2-yl)methoxy)-N-(pyridin-4-ylmethyl)acetamide]
inhibition at 10 µM [1]: 51.4%
inhibition at 10 µM [2]: 102%

Cc1cc(Br)cc(C)c1S(=O)(=O)N1CCCCC1COCC(=O)N1CCN(c2ccncc2)CC1 (stereo not drawn) [Example 150, 2-((1-(4-bromo-2,6-dimethylphenylsulfonyl)piperidin-2-yl)methoxy)-1-(4-(pyridin-4-yl)piperazin-1-yl)ethanone]
inhibition at 10 µM [1]: 98.3%
inhibition at 10 µM [2]: 99.1%

COc1cc(C)c(S(=O)(=O)N2CCCCC2COCC(=O)Nc2cc(-c3ccc(C)cc3)n[nH]2)c(C)c1 (stereo not drawn) [Example 544, 2-((1-(4-methoxy-2,6-dimethylphenylsulfonyl)piperidin-2-yl)methoxy)-N-(3-p-tolyl-1H-pyrazol-5-yl)acetamide]
inhibition at 10 µM [1]: 11.7%
inhibition at 10 µM [2]: 107%

COc1cc(C)c(S(=O)(=O)N2CCCCC2COCC(=O)NCCC2CCN(c3ccncc3)CC2)c(C)c1 (stereo not drawn) [Example 143, 2-((1-(4-methoxy-2,6-dimethylphenylsulfonyl)piperidin-2-yl)methoxy)-N-(2-(1-(pyridin-4-yl)piperidin-4-yl)ethyl)acetamide]
inhibition at 10 µM [1]: 99.9%
inhibition at 10 µM [2]: 99.3%

Cc1cccc(CC2CCCN2C(=O)COCC2CCCCN2S(=O)(=O)c2c(Cl)cccc2Cl)n1 (stereo not drawn) [Example 458, 2-((1-(2,6-dichlorophenylsulfonyl)piperidin-2-yl)methoxy)-1-(2-((6-methylpyridin-2-yl)methyl)pyrrolidin-1-yl)ethanone]
inhibition at 10 µM [1]: 103%
inhibition at 10 µM [2]: 100%

COc1cc(C)c(S(=O)(=O)N2CCCC2COCC(=O)N2CCN(Cc3ccc4c(c3)OCO4)CC2)c(C)c1 (stereo not drawn) [Example 462, 1-(4-(benzo[d][1,3]dioxol-5-ylmethyl)piperazin-1-yl)-2-((1-(4-methoxy-2,6-dimethylphenylsulfonyl)pyrrolidin-2-yl)methoxy)ethanone]
inhibition at 10 µM [1]: 101%
inhibition at 10 µM [2]: 98.2%

CN1CCC(N2CCN(C(=O)COCC3CCCCN3S(=O)(=O)c3cc(Cl)c(Cl)cc3Cl)CC2)CC1 (stereo not drawn) [Example 156, 1-(4-(1-methylpiperidin-4-yl)piperazin-1-yl)-2-((1-(2,4,5-trichlorophenylsulfonyl)piperidin-2-yl)methoxy)ethanone dihydrochloride]
inhibition at 10 µM [1]: 108%
inhibition at 10 µM [2]: 103%

COc1cc(C)c(S(=O)(=O)N2CCCCC2COCC(=O)N(C)CCN(C)C)c(C)c1 (stereo not drawn) [Example 379, N-(2-(dimethylamino)ethyl)-2-((1-(4-methoxy-2,6-dimethylphenylsulfonyl)piperidin-2-yl)methoxy)-N-methylacetamide]
inhibition at 10 µM [1]: 67.9%
inhibition at 10 µM [2]: 102%

COc1cc(C)c(S(=O)(=O)N2CCCCC2COCC(=O)Nc2cc(-c3ccc(Cl)cc3)n[nH]2)c(C)c1 (stereo not drawn) [Example 537, N-(3-(4-chlorophenyl)-1H-pyrazol-5-yl)-2-((1-(4-methoxy-2,6-dimethylphenylsulfonyl)piperidin-2-yl)methoxy)acetamide]
inhibition at 10 µM [1]: 12.5%
inhibition at 10 µM [2]: 98.7%

O=C(COCC1CCCN1S(=O)(=O)c1c(Cl)cc(Cl)cc1Cl)NCc1ccc(N2CCCCC2)cc1 (stereo not drawn) [Example 71, N-(4-piperidin-1-yl-benzyl)-2-[1-(2,4,6-trichloro-phenylsulfonyl)-pyrrolidin-2-yl-methoxy]-acetamide]
inhibition at 10 µM [1]: 53.2%
inhibition at 10 µM [2]: 95.2%

O=C(COCC1CCCN1S(=O)(=O)c1c(Cl)cccc1Cl)N1CCC(N2CCCCC2)CC1 (stereo not drawn) [Example 337, 1-(1,4′-bipiperidin-1′-yl)-2-((1-(2,6-dichlorophenylsulfonyl)pyrrolidin-2-yl)methoxy)ethanone]
inhibition at 10 µM [1]: 104%
inhibition at 10 µM [2]: 104%

O=C(COCC1Cc2ccccc2CN1S(=O)(=O)c1ccc(Cl)c(Cl)c1)N1CCCC1CN1CCCCC1 (stereo not drawn) [Example 82, 2-[2-(3,4-dichloro-phenylsulfonyl)-1,2,3,4-tetrahydro-isoquinolin-3-ylmethoxy]-1-(2-piperidin-1-ylmethyl-pyrrolidin-1-yl)-ethanone]
inhibition at 10 µM [1]: 44.9%
inhibition at 10 µM [2]: 4.42%

COc1cc(C)c(S(=O)(=O)N2CCCC2COCC(=O)NCCCN2CCCCC2)c(C)c1 (stereo not drawn) [Example 522, 2-((1-(4-methoxy-2,6-dimethylphenylsulfonyl)pyrrolidin-2-yl)methoxy)-N-(3-(piperidin-1-yl)propyl)acetamide]
inhibition at 10 µM [1]: 54.2%
inhibition at 10 µM [2]: 98.7%

COc1cc(C)c(S(=O)(=O)N2CCCCC2COCC(=O)Nc2ccc(CN3CCCCC3)cc2)c(C)c1 (stereo not drawn) [Example 419, 2-((1-(4-methoxy-2,6-dimethylphenylsulfonyl)piperidin-2-yl)methoxy)-N-(4-(piperidin-1-ylmethyl)phenyl)acetamide]
inhibition at 10 µM [1]: 100%
inhibition at 10 µM [2]: 101%

COc1cc(C)c(S(=O)(=O)N2CCCCC2COCC(=O)NCCCN2C(C)CCCC2C)c(C)c1 (stereo not drawn) [Example 260, N-(3-(2,6-dimethylpiperidin-1-yl)propyl)-2-((1-(4-methoxy-2,6-dimethylphenylsulfonyl)piperidin-2-yl)methoxy)acetamide]
inhibition at 10 µM [1]: 102%
inhibition at 10 µM [2]: 60.6%

Cc1cccc(CC2CCCCN2C(=O)COCC2CCCCN2S(=O)(=O)c2c(Cl)cccc2Cl)n1 (stereo not drawn) [Example 284, 2-((1-(2,6-dichlorophenylsulfonyl)piperidin-2-yl)methoxy)-1-(2-((6-methylpyridin-2-yl)methyl)piperidin-1-yl)ethanone]
inhibition at 10 µM [1]: 103%
inhibition at 10 µM [2]: 93.5%

CCN1CCN(CCCNC(=O)COCC2CCCCN2S(=O)(=O)c2c(C)cc(OC)cc2C)CC1 (stereo not drawn) [Example 412, N-(3-(4-ethylpiperazin-1-yl)propyl)-2-((1-(4-methoxy-2,6-dimethylphenylsulfonyl)piperidin-2-yl)methoxy)acetamide]
inhibition at 10 µM [1]: 101%
inhibition at 10 µM [2]: 103%

COc1cc(C)c(S(=O)(=O)N2CCCCC2COCC(=O)Nc2ccc(N3CCOCC3)cc2)c(C)c1 (stereo not drawn) [Example 438, 2-((1-(4-methoxy-2,6-dimethylphenylsulfonyl)piperidin-2-yl)methoxy)-N-(4-morpholinophenyl)acetamide]
inhibition at 10 µM [1]: 22.1%
inhibition at 10 µM [2]: 100%

COc1cc(C)c(S(=O)(=O)N2CCCC2COCC(=O)NCC(c2ccc(C(F)(F)F)cc2)N(C)C)c(C)c1 (stereo not drawn) [Example 495, N-(2-(dimethylamino)-2-(4-(trifluoromethyl)phenyl)ethyl)-2-((1-(4-methoxy-2,6-dimethylphenylsulfonyl)pyrrolidin-2-yl)methoxy)acetamide]
inhibition at 10 µM [1]: 30.7%
inhibition at 10 µM [2]: 95.7%

CN1CCC(N2CCN(C(=O)COCC3CCCCN3S(=O)(=O)c3cccc4ccccc34)CC2)CC1 (stereo not drawn) [Example 110, 1-(4-(1-methylpiperidin-4-yl)piperazin-1-yl)-2-((1-(naphthalen-1-ylsulfonyl)piperidin-2-yl)methoxy)ethanone]
inhibition at 10 µM [1]: 102%
inhibition at 10 µM [2]: 102%

COc1cc(C)c(S(=O)(=O)N2CCCCC2COCC(=O)N2CCCN(C)CC2)c(C)c1 (stereo not drawn) [Example 375, 2-((1-(4-methoxy-2,6-dimethylphenylsulfonyl)piperidin-2-yl)methoxy)-1-(4-methyl-1,4-diazepan-1-yl)ethanone]
inhibition at 10 µM [1]: 98.7%
inhibition at 10 µM [2]: 99.8%

COc1cc(C)c(S(=O)(=O)N2CCCCC2COCC(=O)N2CCN(Cc3ccccc3F)CC2)c(C)c1 (stereo not drawn) [Example 387, 1-(4-(2-fluorobenzyl)piperazin-1-yl)-2-((1-(4-methoxy-2,6-dimethylphenylsulfonyl)piperidin-2-yl)methoxy)ethanone]
inhibition at 10 µM [1]: 91%
inhibition at 10 µM [2]: 101%
